The target of one assay is T1, KRAS (G12D) (Homo sapiens, UniProt P01116, G12D).
T1 construct: in-cell western with KRAS G12D antibody after 24 h
The experiment in a line: KRAS (G12D) cellular degradation assay in AsPC-1 cells. The class given is cell-based. To be noted: 24 hours, antibody fluorescence (Odyssey CLX), DC50 half-maximal degradation concentration. An outline of the steps:
(§1)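 AsPC-1 cells: for degradation, grown to ~90% confluency, treated 24 h with 1:3 compound series ([…] to 1.5 nM), then fixed and immunostained for KRAS G12D and β-actin, read by infrared fluorescence, DC50 fitted. Proliferation: 3,500 cells/well, 6-day treatment, CellTiter Glo luminescence, IC50 fitted.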

The next assay has as its system AsPC-1 cells. The experiment in a line: AsPC-1 cell proliferation assay (CellTiter Glo). The class given is cell-based. To be noted: Homo sapiens, ASPC1, 144 h, 6 days. An outline of the steps:
as §1

As usually defined, the DC50 is the concentration giving 50% degradation. A lower DC50 goes with degradation at low concentration. Broadly, the IC50 is the concentration that inhibits the measured activity by half. Higher therefore signals weaker potency.

T1 sequence (P01116 1-188 isoform P01116-2 G12D): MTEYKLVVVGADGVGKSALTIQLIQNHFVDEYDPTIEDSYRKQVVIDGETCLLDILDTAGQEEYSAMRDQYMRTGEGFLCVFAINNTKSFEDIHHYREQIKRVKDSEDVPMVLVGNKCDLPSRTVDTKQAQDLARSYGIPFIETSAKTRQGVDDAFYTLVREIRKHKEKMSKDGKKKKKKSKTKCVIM

As for `CCn1nccc1-c1ccc([C@H](CO)NC(=O)[C@@H]2C[C@@H](O)CN2C(=O)[C@H](C(C)C)n2cc(-c3ccc(COc4c(-c5c(C)c(F)c(F)c6[nH]ncc56)c(C5CC5)cc5c(N6C[C@@H]7C[C@H]6CN7)nc(O[C@H]6CC[C@H](OC)CC6)nc45)cc3)nn2)cc1` [Example 99, (2S,4R)-1-((2S)-2-(4-(4-(((4-((1S,4S)-2,5-diazabicyclo[2.2.1]heptan-2-yl)-6-cyclopropyl-7-(6,7-difluoro-5-methyl-1H-indazol-4-yl)-2-(((1r,4S)-4-methoxycyclohexyl)oxy)quinazolin-8-yl)oxy)methyl)phenyl)-1H-1,2,3-triazol-1-yl)-3-methylbutanoyl)-N—((R)-1-(4-(1-ethyl-1H-pyrazol-5-yl)phenyl)-2-hydroxyethyl)-4-hydroxypyrrolidine-2-carboxamide], the 50% degradation concentration (DC50) on KRAS (G12D) was below 10 nM. This compound also gave a half-inhibitory concentration (IC50) in the assay on AsPC-1 cells below 10 nM.
For the compound `CCn1nccc1-c1ccc([C@@H](NC(=O)[C@@H]2C[C@@H](O)CN2C(=O)[C@H](C(C)C)n2cc(-c3ccc(COc4c(-c5c(C)c(F)cc6[nH]ncc56)c(C5CC5)cc5c(N6C[C@@H]7C[C@H]6CN7)nc(OC6CC7(COC7)C6)nc45)cc3)nn2)[C@H](C)O)cc1` [Example 100, (2S,4R)-1-((2S)-2-(4-(4-(((2-((2-oxaspiro[3.3]heptan-6-yl)oxy)-4-((1S,4S)-2,5-diazabicyclo[2.2.1]heptan-2-yl)-6-cyclopropyl-7-(6-fluoro-5-methyl-1H-indazol-4-yl)quinazolin-8-yl)oxy)methyl)phenyl)-1H-1,2,3-triazol-1-yl)-3-methylbutanoyl)-N-((1R,2S)-1-(4-(1-ethyl-1H-pyrazol-5-yl)phenyl)-2-hydroxypropyl)-4-hydroxypyrrolidine-2-carboxamide], on KRAS (G12D), the DC50 was below 10 nM. Besides, the IC50 with AsPC-1 cells was below 10 nM.
Consider `CCn1nccc1-c1ccc([C@H](CO)NC(=O)[C@@H]2C[C@@H](O)CN2C(=O)[C@H](C(C)C)n2cc(-c3ccc(COc4c(-c5c(C)c(F)cc6[nH]ncc56)c(C5CC5)cc5c(N6C[C@@H]7C[C@H]6CN7)nc(OC6CC7(CCOC7)C6)nc45)cc3)nn2)cc1` (stereo partly drawn) [Example 101, (2S,4R)-1-((2S)-2-(4-(4-(((2-((6-oxaspiro[3.4]octan-2-yl)oxy)-4-((1S,4S)-2,5-diazabicyclo[2.2.1]heptan-2-yl)-6-cyclopropyl-7-(6-fluoro-5-methyl-1H-indazol-4-yl)quinazolin-8-yl)oxy)methyl)phenyl)-1H-1,2,3-triazol-1-yl)-3-methylbutanoyl)-N—((R)-1-(4-(1-ethyl-1H-pyrazol-5-yl)phenyl)-2-hydroxyethyl)-4-hydroxypyrrolidine-2-carboxamide], for which, on KRAS (G12D), the half-maximal degradation concentration (DC50) was below 10 nM. In the assay on AsPC-1 cells, this compound had a concentration for half-maximal inhibition (IC50) below 10 nM.
In the case of `CO[C@H]1C[C@@H](Oc2nc(N3C[C@@H]4C[C@H]3CN4)c3cc(C4CC4)c(-c4c(C)c(F)cc5[nH]ncc45)c(OCc4ccc(-c5cn([C@H](C(=O)N6C[C@H](O)C[C@H]6C(=O)N[C@@H](CO)c6ccc(-c7scnc7C)cc6)C(C)C)nn5)cc4)c3n2)C1` [Example 102, (2S,4R)-1-((2S)-2-(4-(4-(((4-((1S,4S)-2,5-diazabicyclo[2.2.1]heptan-2-yl)-6-cyclopropyl-7-(6-fluoro-5-methyl-1H-indazol-4-yl)-2-((1s,3R)-3-methoxycyclobutoxy)quinazolin-8-yl)oxy)methyl)phenyl)-1H-1,2,3-triazol-1-yl)-3-methylbutanoyl)-4-hydroxy-N—((R)-2-hydroxy-1-(4-(4-methylthiazol-5-yl)phenyl)ethyl)pyrrolidine-2-carboxamide], the DC50 on KRAS (G12D) is below 10 nM. The compound further gave an IC50 in the assay with AsPC-1 cells below 10 nM.
In the case of `COC1CCC(Oc2nc(N3C[C@@H]4C[C@H]3CN4)c3cc(C4CC4)c(-c4c(C)c(F)c(F)c5[nH]ncc45)c(OCc4ccc(-c5cn([C@H](C(=O)N6C[C@H](O)C[C@H]6C(=O)N[C@@H](CO)c6ccc(-c7scnc7C)cc6)C(C)C)nn5)cc4)c3n2)CC1` (stereo partly drawn) [Example 103, (2S,4R)-1-((2S)-2-(4-(4-(((4-((1S,4S)-2,5-diazabicyclo[2.2.1]heptan-2-yl)-6-cyclopropyl-7-(6,7-difluoro-5-methyl-1H-indazol-4-yl)-2-(((1s,4R)-4-methoxycyclohexyl)oxy)quinazolin-8-yl)oxy)methyl)phenyl)-1H-1,2,3-triazol-1-yl)-3-methylbutanoyl)-4-hydroxy-N—((R)-2-hydroxy-1-(4-(4-methylthiazol-5-yl)phenyl)ethyl)pyrrolidine-2-carboxamide], the DC50 at KRAS (G12D) fell in the range of 10 to 100 nM. Besides, in the assay with AsPC-1 cells, the 50% inhibitory concentration (IC50) was below 10 nM.
In the same order, the values of `CCn1nccc1-c1ccc([C@H](CO)NC(=O)[C@@H]2C[C@@H](O)CN2C(=O)[C@H](C(C)C)n2cc(-c3ccc(COc4c(-c5c(C)c(F)cc6[nH]ncc56)c(C5CC5)cc5c(N6C[C@@H]7C[C@H]6CN7)nc(OC6CC7COCC7C6)nc45)cc3)nn2)cc1` (stereo partly drawn) [Example 104, (2S,4R)-1-((2S)-2-(4-(4-(((4-((1S,4S)-2,5-diazabicyclo[2.2.1]heptan-2-yl)-6-cyclopropyl-7-(6-fluoro-5-methyl-1H-indazol-4-yl)-2-((hexahydro-1H-cyclopenta[c]furan-5-yl)oxy)quinazolin-8-yl)oxy)methyl)phenyl)-1H-1,2,3-triazol-1-yl)-3-methylbutanoyl)-N—((R)-1-(4-(1-ethyl-1H-pyrazol-5-yl)phenyl)-2-hydroxyethyl)-4-hydroxypyrrolidine-2-carboxamide] are below 10 nM and below 10 nM.
In the same order, the values of `CCn1nccc1-c1ccc([C@H](CO)NC(=O)[C@@H]2C[C@@H](O)CN2C(=O)[C@H](C(C)C)n2cc(-c3ccc(COc4c(-c5c(C)c(F)cc6[nH]ncc56)c(C5CC5)cc5c(N6C[C@@H]7C[C@H]6CN7)nc(OC6CC7(CCOCC7)C6)nc45)cc3)nn2)cc1` [Example 105, (2S,4R)-1-((2S)-2-(4-(4-(((2-((7-oxaspiro[3.5]nonan-2-yl)oxy)-4-((1S,4S)-2,5-diazabicyclo[2.2.1]heptan-2-yl)-6-cyclopropyl-7-(6-fluoro-5-methyl-1H-indazol-4-yl)quinazolin-8-yl)oxy)methyl)phenyl)-1H-1,2,3-triazol-1-yl)-3-methylbutanoyl)-N—((R)-1-(4-(1-ethyl-1H-pyrazol-5-yl)phenyl)-2-hydroxyethyl)-4-hydroxypyrrolidine-2-carboxamide] are below 10 nM and below 10 nM.
In the same order, the values of `CCn1nccc1-c1ccc([C@H](CO)NC(=O)[C@@H]2C[C@@H](O)CN2C(=O)[C@H](C(C)C)n2cc(-c3ccc(COc4c(-c5c(C)c(F)cc6[nH]ncc56)c(C5CC5)cc5c(N6CCCNCC6)nc(OC[C@H](C)OC)nc45)cc3)nn2)cc1` [Example 107, (2S,4R)-1-((2S)-2-(4-(4-(((6-cyclopropyl-4-(1,4-diazepan-1-yl)-7-(6-fluoro-5-methyl-1H-indazol-4-yl)-2-((S)-2-methoxypropoxy)quinazolin-8-yl)oxy)methyl)phenyl)-1H-1,2,3-triazol-1-yl)-3-methylbutanoyl)-N—((R)-1-(4-(1-ethyl-1H-pyrazol-5-yl)phenyl)-2-hydroxyethyl)-4-hydroxypyrrolidine-2-carboxamide] are below 10 nM and below 10 nM.
Compound `CCn1nccc1-c1ccc([C@@H](NC(=O)[C@@H]2C[C@@H](O)CN2C(=O)[C@H](C(C)C)n2cc(-c3ccc(COc4c(-c5c(C)c(F)cc6[nH]ncc56)c(C5CC5)cc5c(N6C[C@@H]7C[C@H]6CN7)nc(O[C@H]6C[C@H](OC)C6)nc45)cc3)nn2)[C@H](C)O)cc1` [Example 109, (2S,4R)-1-((2S)-2-(4-(4-(((4-((1S,4S)-2,5-diazabicyclo[2.2.1]heptan-2-yl)-6-cyclopropyl-7-(6-fluoro-5-methyl-1H-indazol-4-yl)-2-((1r,3S)-3-methoxycyclobutoxy)quinazolin-8-yl)oxy)methyl)phenyl)-1H-1,2,3-triazol-1-yl)-3-methylbutanoyl)-N-((1R,2S)-1-(4-(1-ethyl-1H-pyrazol-5-yl)phenyl)-2-hydroxypropyl)-4-hydroxypyrrolidine-2-carboxamide] gave a DC50 on KRAS (G12D) below 10 nM. This compound also came in with a half-maximal inhibitory concentration (IC50) with AsPC-1 cells below 10 nM.
In turn, `CO[C@@H](C)COc1nc(N2C[C@@H]3C[C@H]2CN3)c2cc(C3CC3)c(-c3c(C)c(F)cc4[nH]ncc34)c(OCc3ccc(-c4cn([C@H](C(=O)N5C[C@H](O)C[C@H]5C(=O)N[C@H](C#Cc5ccc6nc(N)sc6c5)CO)C(C)C)nn4)cc3)c2n1` [Example 111, (2S,4R)-1-((2S)-2-(4-(4-(((4-((1S,4S)-2,5-diazabicyclo[2.2.1]heptan-2-yl)-6-cyclopropyl-7-(6-fluoro-5-methyl-1H-indazol-4-yl)-2-((S)-2-methoxypropoxy)quinazolin-8-yl)oxy)methyl)phenyl)-1H-1,2,3-triazol-1-yl)-3-methylbutanoyl)-N—((R)-4-(2-aminobenzo[d]thiazol-6-yl)-1-hydroxybut-3-yn-2-yl)-4-hydroxypyrrolidine-2-carboxamide] showed a DC50 at KRAS (G12D) below 10 nM. Moreover, the concentration for half-maximal inhibition (IC50) in the assay with AsPC-1 cells is below 10 nM.
With `CCn1nccc1-c1ccc([C@H](CO)NC(=O)[C@@H]2C[C@@H](O)CN2C(=O)[C@H](C(C)C)n2cc(-c3ccc(COc4c(-c5c(C)c(F)cc6[nH]ncc56)c(C5CC5)cc5c(N6C[C@@H]7C[C@H]6CN7)nc(N6CCC(OC)C6)nc45)cc3)nn2)cc1` (stereo partly drawn) [Example 112, (2S,4R)-1-((2S)-2-(4-(4-(((4-((1S,4S)-2,5-diazabicyclo[2.2.1]heptan-2-yl)-6-cyclopropyl-7-(6-fluoro-5-methyl-1H-indazol-4-yl)-2-(3-methoxypyrrolidin-1-yl)quinazolin-8-yl)oxy)methyl)phenyl)-1H-1,2,3-triazol-1-yl)-3-methylbutanoyl)-N—((R)-1-(4-(1-ethyl-1H-pyrazol-5-yl)phenyl)-2-hydroxyethyl)-4-hydroxypyrrolidine-2-carboxamide], the half-maximal degradation concentration (DC50) on KRAS (G12D) is below 10 nM. In the assay on AsPC-1 cells, the IC50 is below 10 nM.

The values are drawn from patent US20260295053A1, “COMPOUNDS FOR DEGRADATION AND INHIBITION OF KRAS (G12D) PROTEIN” (Shenzhen Ionova Life Science Co., Ltd., priority 2023, published 2026).
